# From ChEMBL document CHEMBL1201862, “PubChem BioAssay data set” (2004)
#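 Dose response: 5 concentrations. Exposure: 48 h. Format: 96-well plates. Endpoint: linear interpolation; highest concentration if not reached. GI50: concentration for 50% inhibition of growth.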 Calls of active or inactive are those of the source. No stated cut-off is given here; in the data, active = GI50 up to about 1.1 µM and inactive = higher.
# Key:
# Test in all cases: NCI anticancer screen, dose series, 48 h
# [1] = tested on: 786-0
# [2] = tested on: A498
# [3] = tested on: A549
# [4] = tested on: ACHN
# [5] = tested on: CAKI-1
# [6] = tested on: CCRF-CEM
# [7] = tested on: COLO 205
# [8] = tested on: DLD-1
# [9] = tested on: DMS-114
# [10] = tested on: DMS-273
# [11] = tested on: EKVX
# [12] = tested on: HCC 2998
# [13] = tested on: HCT-116
# [14] = tested on: HCT-15
# [15] = tested on: HL-60
# [16] = tested on: HOP-18
# [17] = tested on: HOP-62
# [18] = tested on: HOP-92
# [19] = tested on: HT-29
# [20] = tested on: IGROV-1
# [21] = tested on: K562
# [22] = tested on: KM-20L2
# [23] = tested on: KM12
# [24] = tested on: LOX IMVI
# [25] = tested on: M14
# [26] = tested on: M19-MEL
# [27] = tested on: MOLT-4
# [28] = tested on: Malme-3M
# [29] = tested on: NCI-H226
# [30] = tested on: NCI-H23
# [31] = tested on: NCI-H460
# [32] = tested on: NCI-H522
# [33] = tested on: OVCAR-3
# [34] = tested on: OVCAR-4
# [35] = tested on: OVCAR-5
# [36] = tested on: OVCAR-8
# [37] = tested on: RPMI-8226
# [38] = tested on: RXF 393
# [39] = tested on: SF-268
# [40] = tested on: SF-295
# [41] = tested on: SF-539
# [42] = tested on: SK-MEL-28
# [43] = tested on: SK-MEL-2
# [44] = tested on: SK-MEL-5
# [45] = tested on: SK-OV-3
# [46] = tested on: SN12C
# [47] = tested on: SNB-19
# [48] = tested on: SNB-75
# [49] = tested on: SNB-78
# [50] = tested on: SR
# [51] = tested on: SW-620
# [52] = tested on: TK-10
# [53] = tested on: U-251
# [54] = tested on: UACC-257
# [55] = tested on: UACC-62
# [56] = tested on: UO-31
# [57] = tested on: XF498
smiles,measurement,setting,value
O=c1c2c(nc3n1CCC3)sc1c(O)c(Br)ccc12,GI50,[1],17.5 µM (inactive)
same,GI50,[2],10.5 µM (inactive)
same,GI50,[3],15.4 µM (inactive)
same,GI50,[4],14.6 µM (inactive)
same,GI50,[5],> 100 µM (inactive)
same,GI50,[6],15.5 µM (inactive)
same,GI50,[7],11.8 µM (inactive)
same,GI50,[8],27.7 µM (inactive)
same,GI50,[9],16.3 µM (inactive)
same,GI50,[10],14.9 µM (inactive)
same,GI50,[11],23.9 µM (inactive)
same,GI50,[12],17.1 µM (inactive)
same,GI50,[13],15.2 µM (inactive)
same,GI50,[14],18.6 µM
same,GI50,[15],14.7 µM (inactive)
same,GI50,[16],> 100 µM (inactive)
same,GI50,[17],19.1 µM (inactive)
same,GI50,[18],> 100 µM (inactive)
same,GI50,[19],12.5 µM (inactive)
same,GI50,[20],24.1 µM (inactive)
same,GI50,[21],19.3 µM (inactive)
same,GI50,[22],13.5 µM (inactive)
same,GI50,[23],14.3 µM (inactive)
same,GI50,[24],13 µM (inactive)
same,GI50,[25],> 100 µM (inactive)
same,GI50,[26],16.3 µM (inactive)
same,GI50,[27],11.1 µM (inactive)
same,GI50,[28],17.5 µM (inactive)
same,GI50,[29],19.6 µM (inactive)
same,GI50,[30],27 µM (inactive)
same,GI50,[31],16.4 µM (inactive)
same,GI50,[32],16 µM (inactive)
same,GI50,[33],19.1 µM (inactive)
same,GI50,[34],17.7 µM (inactive)
same,GI50,[35],20.7 µM (inactive)
same,GI50,[36],10.7 µM (inactive)
same,GI50,[37],21.3 µM (inactive)
same,GI50,[38],29.9 µM (inactive)
same,GI50,[39],60.4 µM (inactive)
same,GI50,[40],17.3 µM (inactive)
same,GI50,[41],15.5 µM (inactive)
same,GI50,[42],16.4 µM (inactive)
same,GI50,[43],20.7 µM (inactive)
same,GI50,[44],14.5 µM (inactive)
same,GI50,[45],23.9 µM (inactive)
same,GI50,[46],16.4 µM (inactive)
same,GI50,[47],54.7 µM (inactive)
same,GI50,[48],> 100 µM (inactive)
same,GI50,[49],33.3 µM (inactive)
same,GI50,[50],12.1 µM (inactive)
same,GI50,[51],12.5 µM (inactive)
same,GI50,[52],19.1 µM (inactive)
same,GI50,[53],20.2 µM (inactive)
same,GI50,[54],16.6 µM (inactive)
same,GI50,[55],17.4 µM (inactive)
same,GI50,[56],18.8 µM (inactive)
same,GI50,[57],21.5 µM (inactive)
